Drawing on the supplement of paper PMC10307832, this text covers relative viability for 9 cell lines.

Holding throughout (test): relative viability (nuclei count vs DMSO), 5 days (fraction); higher = more cells survive
Compound in the assay “Quizartinib + Phenformin”: CC(C)(C)c1cc(NC(=O)Nc2ccc(-c3cn4c(n3)sc3cc(OCCN5CCOCC5)ccc34)cc2)no1 [Quizartinib] + N=C(N)NC(=N)NCCc1ccccc1 [Phenformin] (partner 250 µM)
The gist of the method:
(§1)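 Lung cancer cell lines, seeded in 1536-well plates, were treated the following day by pin tool with a single drug or with five library-drug doses (not always all listed) in √10 steps on top of a fixed anchor-drug dose. Cells were fixed and nuclei stained in one step after 5 days, and nuclei were counted. Relative viability is the nuclei count for treated wells divided by that for vehicle wells, reported as medians of duplicate plates.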

Compound in the assay “YM155 + Trametinib”: COCC[n+]1c2c(n(Cc3cnccn3)c1C)C(=O)c1ccccc1C2=O [YM155] + CC(=O)Nc1cccc(-n2c(=O)n(C3CC3)c(=O)c3c(Nc4ccc(I)cc4F)n(C)c(=O)c(C)c32)c1 [Trametinib] (partner 0.02 µM)
The method in brief: as §1

Compound in the assay “YM155 + Pictilisib”: COCC[n+]1c2c(n(Cc3cnccn3)c1C)C(=O)c1ccccc1C2=O [YM155] + CS(=O)(=O)N1CCN(Cc2cc3nc(-c4cccc5[nH]ncc45)nc(N4CCOCC4)c3s2)CC1 [Pictilisib] (partner 1 µM)
The gist of the method:
as §1

Compound in the assay “YM155 + Vorinostat”: COCC[n+]1c2c(n(Cc3cnccn3)c1C)C(=O)c1ccccc1C2=O [YM155] + O=C(CCCCCCC(=O)Nc1ccccc1)NO [Vorinostat] (partner 1 µM)
The gist of the method:
as §1

NCI-H1650: the relative viability came out at 0.418 in the assay with Quizartinib + Phenformin (first compound 0.001 µM); 0.585 with Quizartinib + Phenformin (first compound 0.003162 µM); 0.382 with Quizartinib + Phenformin (first compound 0.01 µM); 0.417 in the assay with Quizartinib + Phenformin (first compound 0.1 µM); 0.478 with YM155 + Trametinib (first compound 0.002 µM); 0.581 in the assay with YM155 + Trametinib (first compound 0.006325 µM). For the same cell line, the relative viability is 0.458 with YM155 + Trametinib (first compound 0.02 µM); 0.355 in the assay with YM155 + Trametinib (first compound 0.06325 µM); 0.498 with YM155 + Pictilisib (first compound 0.002 µM); 0.573 with YM155 + Pictilisib (first compound 0.006325 µM); 0.532 in the assay with YM155 + Pictilisib (first compound 0.02 µM); 0.276 with YM155 + Pictilisib (first compound 0.06325 µM). Further, the relative viability with YM155 + Vorinostat (first compound 0.002 µM) is 0.545; in the assay with YM155 + Vorinostat (first compound 0.006325 µM) it was 0.427; with YM155 + Vorinostat (first compound 0.02 µM), 0.468; with YM155 + Vorinostat (first compound 0.06325 µM), 0.3.

Turning to NCI-H1651, the relative viability worked out at 0.41 with Quizartinib + Phenformin (first compound 0.001 µM); 0.268 in the assay with Quizartinib + Phenformin (first compound 0.003162 µM); 0.35 with Quizartinib + Phenformin (first compound 0.01 µM); 0.231 with Quizartinib + Phenformin (first compound 0.03162 µM); 0.272 with Quizartinib + Phenformin (first compound 0.1 µM); 0.863 in the assay with YM155 + Trametinib (first compound 0.002 µM). In addition, the relative viability amounted to 0.755 with YM155 + Trametinib (first compound 0.006325 µM); 0.867 with YM155 + Trametinib (first compound 0.02 µM); 0.962 in the assay with YM155 + Trametinib (first compound 0.06325 µM); 0.542 with YM155 + Pictilisib (first compound 0.002 µM); 0.589 with YM155 + Pictilisib (first compound 0.006325 µM); 0.556 with YM155 + Pictilisib (first compound 0.02 µM). The relative viability was determined as 0.473 with YM155 + Pictilisib (first compound 0.06325 µM); 0.569 with YM155 + Vorinostat (first compound 0.002 µM); 0.538 with YM155 + Vorinostat (first compound 0.006325 µM); 0.586 in the assay with YM155 + Vorinostat (first compound 0.02 µM); 0.605 with YM155 + Vorinostat (first compound 0.06325 µM).

On to NCI-H1666, for which the relative viability with Quizartinib + Phenformin (first compound 0.001 µM) was 0.581; with Quizartinib + Phenformin (first compound 0.003162 µM), 0.433; in the assay with Quizartinib + Phenformin (first compound 0.01 µM), 0.569; with Quizartinib + Phenformin (first compound 0.03162 µM), 0.568; with Quizartinib + Phenformin (first compound 0.1 µM) it was 0.54; with YM155 + Trametinib (first compound 0.002 µM), 0.865. In addition, the relative viability with YM155 + Trametinib (first compound 0.006325 µM) was 0.896; with YM155 + Trametinib (first compound 0.02 µM) it was 0.874; in the assay with YM155 + Trametinib (first compound 0.06325 µM), 0.903; with YM155 + Pictilisib (first compound 0.002 µM), 0.455; with YM155 + Pictilisib (first compound 0.02 µM), 0.404; with YM155 + Pictilisib (first compound 0.06325 µM), 0.484. Further, the relative viability in the assay with YM155 + Vorinostat (first compound 0.002 µM) was 0.923; with YM155 + Vorinostat (first compound 0.006325 µM), 1.11; with YM155 + Vorinostat (first compound 0.02 µM), 1.03; in the assay with YM155 + Vorinostat (first compound 0.06325 µM), 1.03.

Turning to NCI-H1734, the relative viability in the assay with Quizartinib + Phenformin (first compound 0.001 µM) was 0.3; in the assay with Quizartinib + Phenformin (first compound 0.003162 µM), 0.338; with Quizartinib + Phenformin (first compound 0.01 µM), 0.48; with Quizartinib + Phenformin (first compound 0.03162 µM), 0.391; with Quizartinib + Phenformin (first compound 0.1 µM), 0.387; in the assay with YM155 + Trametinib (first compound 0.002 µM), 0.672. Further, the relative viability worked out at 0.658 with YM155 + Trametinib (first compound 0.006325 µM); 0.724 with YM155 + Trametinib (first compound 0.02 µM); 0.741 with YM155 + Trametinib (first compound 0.06325 µM); 0.414 with YM155 + Pictilisib (first compound 0.002 µM); 0.454 in the assay with YM155 + Pictilisib (first compound 0.006325 µM); 0.491 in the assay with YM155 + Pictilisib (first compound 0.02 µM). Also, the relative viability with YM155 + Pictilisib (first compound 0.06325 µM) turned out to be 0.533; with YM155 + Vorinostat (first compound 0.002 µM), 0.826; in the assay with YM155 + Vorinostat (first compound 0.006325 µM) it was 0.799; in the assay with YM155 + Vorinostat (first compound 0.02 µM) it was 0.891; in the assay with YM155 + Vorinostat (first compound 0.06325 µM), 0.84.

For the cell line NCI-H1755, the relative viability came out at 0.58 with Quizartinib + Phenformin (first compound 0.001 µM); 0.665 in the assay with Quizartinib + Phenformin (first compound 0.003162 µM); 0.609 with Quizartinib + Phenformin (first compound 0.01 µM); 0.652 with Quizartinib + Phenformin (first compound 0.03162 µM); 0.672 with Quizartinib + Phenformin (first compound 0.1 µM); 0.764 with YM155 + Trametinib (first compound 0.002 µM). The relative viability in the assay with YM155 + Trametinib (first compound 0.006325 µM) was 0.752; with YM155 + Trametinib (first compound 0.02 µM) it was 0.751; with YM155 + Trametinib (first compound 0.06325 µM), 0.755; with YM155 + Pictilisib (first compound 0.002 µM) it was 0.396; with YM155 + Pictilisib (first compound 0.006325 µM), 0.437; with YM155 + Pictilisib (first compound 0.02 µM) it was 0.428. Besides, the relative viability was determined as 0.513 in the assay with YM155 + Pictilisib (first compound 0.06325 µM); 0.752 with YM155 + Vorinostat (first compound 0.002 µM); 0.671 with YM155 + Vorinostat (first compound 0.006325 µM); 0.622 in the assay with YM155 + Vorinostat (first compound 0.02 µM); 0.845 with YM155 + Vorinostat (first compound 0.06325 µM).

As to NCI-H1793, the relative viability came out at 0.361 with Quizartinib + Phenformin (first compound 0.001 µM); 0.338 with Quizartinib + Phenformin (first compound 0.003162 µM); 0.385 with Quizartinib + Phenformin (first compound 0.01 µM); 0.317 with Quizartinib + Phenformin (first compound 0.03162 µM); 0.37 in the assay with Quizartinib + Phenformin (first compound 0.1 µM); 0.4 with YM155 + Trametinib (first compound 0.002 µM). Further, the relative viability with YM155 + Trametinib (first compound 0.006325 µM) was found to be 0.452; in the assay with YM155 + Trametinib (first compound 0.02 µM), 0.432; with YM155 + Trametinib (first compound 0.06325 µM), 0.407; in the assay with YM155 + Pictilisib (first compound 0.006325 µM) it was 0.303; with YM155 + Pictilisib (first compound 0.02 µM), 0.318; in the assay with YM155 + Pictilisib (first compound 0.06325 µM), 0.211. Besides, the relative viability was found to be 0.719 with YM155 + Vorinostat (first compound 0.002 µM), 0.641 in the assay with YM155 + Vorinostat (first compound 0.006325 µM), 0.89 with YM155 + Vorinostat (first compound 0.02 µM) and 0.74 in the assay with YM155 + Vorinostat (first compound 0.06325 µM).

Consider NCI-H1915, for which the relative viability with Quizartinib + Phenformin (first compound 0.001 µM) was 0.345; with Quizartinib + Phenformin (first compound 0.003162 µM) it was 0.374; with Quizartinib + Phenformin (first compound 0.01 µM), 0.408; with Quizartinib + Phenformin (first compound 0.03162 µM) it was 0.353; in the assay with Quizartinib + Phenformin (first compound 0.1 µM), 0.38; with YM155 + Trametinib (first compound 0.002 µM), 0.303. In addition, the relative viability is 0.295 with YM155 + Trametinib (first compound 0.006325 µM); 0.3 with YM155 + Trametinib (first compound 0.02 µM); 0.349 with YM155 + Trametinib (first compound 0.06325 µM); 0.904 in the assay with YM155 + Pictilisib (first compound 0.002 µM); 0.834 in the assay with YM155 + Pictilisib (first compound 0.006325 µM); 0.88 with YM155 + Pictilisib (first compound 0.02 µM). Besides, the relative viability is 0.667 with YM155 + Pictilisib (first compound 0.06325 µM); 0.516 in the assay with YM155 + Vorinostat (first compound 0.002 µM); 0.519 with YM155 + Vorinostat (first compound 0.006325 µM); 0.525 in the assay with YM155 + Vorinostat (first compound 0.02 µM); 0.533 with YM155 + Vorinostat (first compound 0.06325 µM).

Turning to NCI-H1944, the relative viability with Quizartinib + Phenformin (first compound 0.001 µM) turned out to be 0.206; with Quizartinib + Phenformin (first compound 0.003162 µM) it was 0.209; with Quizartinib + Phenformin (first compound 0.01 µM), 0.182; in the assay with Quizartinib + Phenformin (first compound 0.03162 µM), 0.192; with Quizartinib + Phenformin (first compound 0.1 µM), 0.173; with YM155 + Trametinib (first compound 0.002 µM), 0.388. Moreover, the relative viability worked out at 0.332 with YM155 + Trametinib (first compound 0.006325 µM); 0.429 in the assay with YM155 + Trametinib (first compound 0.02 µM); 0.381 with YM155 + Trametinib (first compound 0.06325 µM); 0.358 with YM155 + Pictilisib (first compound 0.002 µM); 0.339 with YM155 + Pictilisib (first compound 0.006325 µM); 0.363 in the assay with YM155 + Pictilisib (first compound 0.02 µM). Besides, the relative viability with YM155 + Pictilisib (first compound 0.06325 µM) is 0.379; with YM155 + Vorinostat (first compound 0.002 µM) it was 0.596; with YM155 + Vorinostat (first compound 0.006325 µM), 0.511; with YM155 + Vorinostat (first compound 0.02 µM), 0.599; with YM155 + Vorinostat (first compound 0.06325 µM) it was 0.629.

For the cell line NCI-H1975, the relative viability is 0.395 in the assay with Quizartinib + Phenformin (first compound 0.001 µM); 0.406 with Quizartinib + Phenformin (first compound 0.003162 µM); 0.476 in the assay with Quizartinib + Phenformin (first compound 0.01 µM); 0.399 with Quizartinib + Phenformin (first compound 0.03162 µM); 0.404 in the assay with Quizartinib + Phenformin (first compound 0.1 µM); 0.291 in the assay with YM155 + Trametinib (first compound 0.002 µM). Further, the relative viability came out at 0.299 with YM155 + Trametinib (first compound 0.006325 µM); 0.406 in the assay with YM155 + Trametinib (first compound 0.02 µM); 0.236 with YM155 + Trametinib (first compound 0.06325 µM); 0.273 in the assay with YM155 + Pictilisib (first compound 0.002 µM); 0.268 with YM155 + Pictilisib (first compound 0.006325 µM); 0.256 with YM155 + Pictilisib (first compound 0.02 µM). In addition, the relative viability with YM155 + Pictilisib (first compound 0.06325 µM) was found to be 0.224; with YM155 + Vorinostat (first compound 0.002 µM), 0.661; in the assay with YM155 + Vorinostat (first compound 0.006325 µM) it was 0.667; with YM155 + Vorinostat (first compound 0.02 µM), 0.641; in the assay with YM155 + Vorinostat (first compound 0.06325 µM), 0.442.
